Reference: patent US20260258050A1, “IMMUNOMODULATOR” (HITGEN INC., priority 2023, published 2026)

molecular target: T1, Human IL-17A (Homo sapiens, UniProt Q16552); experiment: IL-17A enzyme-linked immunosorbent assay (competitive ELISA, IL-17A/IL-17Ra receptor-ligand binding); parameters: purchased Sino Biological Inc. 12047-H07B; conditions: human IL-17A coated plate, human IL-17Ra, read-out: IC50, inhibitory activity of compounds on human IL-17A
T1 sequence (Q16552 20-155 limits assumed): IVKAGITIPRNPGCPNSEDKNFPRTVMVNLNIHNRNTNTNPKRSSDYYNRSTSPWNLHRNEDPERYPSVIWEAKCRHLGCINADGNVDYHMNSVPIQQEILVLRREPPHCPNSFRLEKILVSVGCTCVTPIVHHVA
Summary of the method: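 Competitive ELISA with plates coated with human IL-17A at 0.2 μg/ml, blocked with 5% skim milk. Compound pre-incubated with IL-17A 10 min at 25 °C, then 16 nM IL-17Ra stock added for 30 min. Bound receptor detected by anti-Fc HRP/TMB, A450. IC50 from variable-slope fit of blank-corrected residual activity.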

IC50 | SMILES
≤ 50 nM | Cc1[nH]nc2c1-c1cnc(NC(=O)[C@@H](NC(=O)c3conc3C(C)C)C(C3CC3)C3CC3)cc1CN(C1CC1)CC2 [compound 214]
≤ 50 nM | Cc1[nH]nc2c1-c1cnc(NC(=O)[C@@H](NC(=O)c3conc3C3CC3)C(C3CC3)C3CC3)cc1CN(C1CC1)CC2 [compound 215]
≤ 50 nM | CCc1nocc1C(=O)N[C@H](C(=O)Nc1cc2c(cn1)-c1c(n[nH]c1C)CCN(C1CC1)C2)C(C1CC1)C1CC1 [compound 216]
≤ 50 nM | CCn1nccc1C(=O)N[C@H](C(=O)Nc1cc2c(cn1)-c1c(n[nH]c1C)CCN(C1CC1)C2)C(C1CC1)C1CC1 [compound 217]
≤ 50 nM | Cc1[nH]nc2c1-c1cc(F)c(NC(=O)[C@@H](NC(=O)c3ccnn3CCCF)C(C3CC3)C3CC3)cc1CN(C1CC1)CC2 [compound 218]
≤ 50 nM | Cc1[nH]nc2c1-c1cnc(NC(=O)[C@@H](NC(=O)c3conc3C(C)C)C(C3CC3)C3CC3)cc1COCC2 [compound 234]
≤ 50 nM | Cc1[nH]nc2c1-c1cnc(NC(=O)[C@@H](NC(=O)c3ccnn3C3CC3)C(C3CC3)C3CC3)cc1COCC2 [compound 237]
≤ 50 nM | CCc1nocc1C(=O)N[C@H](C(=O)Nc1cc2c(cn1)-c1c(n[nH]c1C)CCOC2)C(C1CC1)C1CC1 [compound 240]
≤ 50 nM | Cc1[nH]nc2c1-c1cnc(NC(=O)[C@@H](NC(=O)c3conc3C3CC3)C(C3CC3)C3CC3)cc1COCC2 [compound 241]

More lines, now with the values behind:

SMILES | IC50
Cc1[nH]nc2c1-c1cnc(NC(=O)[C@@H](NC(=O)c3ccnn3C(C)C)C(C3CC3)C3CC3)cc1CN(CC(F)F)CC2 [compound 202] | ≤ 50 nM
Cc1[nH]nc2c1-c1cc(F)c(NC(=O)[C@@H](NC(=O)/C(F)=C\C(C)C)C(C3CC3)C3CC3)cc1COCC2 [compound 229] | ≤ 50 nM
Cc1[nH]nc2c1-c1cc(F)c(NC(=O)[C@@H](NC(=O)/C(F)=C\C3CC3)C(C3CC3)C3CC3)cc1COCC2 [compound 230] | ≤ 50 nM
Cc1[nH]nc2c1-c1cnc(NC(=O)[C@@H](NC(=O)c3ccnn3CC(F)(F)F)C(C3CC3)C3CC3)cc1COCC2 [compound 236] | ≤ 50 nM
Cc1[nH]nc2c1-c1cnc(NC(=O)[C@@H](NC(=O)/C(F)=C\C(C)C)C(C3CC3)C3CC3)cc1COCC2 [compound 238] | ≤ 50 nM
Cc1[nH]nc2c1-c1cnc(NC(=O)[C@@H](NC(=O)/C(F)=C\C3CC3)C(C3CC3)C3CC3)cc1COCC2 [compound 239] | ≤ 50 nM
